Data set [1] can be described thus: clinical study with a reference M3 PAM (similar to first study in Example 2). The data set is classed as in vivo, human. The settings on record: dose levels of 1, 3, 10, 30 and 90 mg, FIG. 6. As to the method:
In a study similar to the first study in Example 2, a known M3 positive allosteric modulator reference compound (example 8 of EP 2 963 036) with the following structure
was administered in dose levels of 1, 3, 10, 30 and 90 mg.

Data set [2] has as its system awake rats. Put plainly: effect on salivation in awake rats (oral administration). The data set is classed as in vivo, rat. The settings on record: for duration of effect on salivation: oral administration to awake rats. As to the method: Pilocarpine therefore alleviates the dry mouth symptoms, but it leads to hyperhidrosis as a further side effect. Moreover, experiments in rats have shown that the effect of pilocarpine on salivation is only short-lived and that initial salivation levels are approached after about 60 minutes (FIG. 1).
Moreover, experiments have shown that its effect on salivation is long-lasting (FIG. 2 as well as FIGS. 3, 4 and 5).

For data set [3], the system named is healthy subjects. Put plainly: Phase 1 study of the effect of pilocarpine on salivary secretion in healthy subjects. Conditions: for participants reporting hyperhidrosis as side effect: periods 1 to 4. The format is in vivo, human. As to the method:
A Phase 1 study to investigate the effect of pilocarpine on salivary secretion was conducted in 12 healthy subjects. The study was conducted as a randomized, subject- and investigator-blinded, placebo-controlled, oral dose clinical study using a 5-way balanced extra period design. Pilocarpine capsules containing 2.5 mg were administered orally (1 capsule for a 2.5 mg dose, 2 capsules for a dose of 5.0 mg pilocarpine and 4 capsules for a dose of 10 mg pilocarpine). Subjects were admitted to the clinical unit on day 1 and were residential for a period of 6 days and 5 nights. Subjects were randomized to 1 of 4 treatment sequences on day 1 prior to study drug administration. Each study period was approximately 1 day and subjects received the different oral doses of the study drug (pilocarpine or placebo to match) in periods 1 through 5. There was a 4-hour saliva collection period following every dose and a washout period of at least 24 hours between doses. To assess the pharmacodynamic effect of pilocarpine on saliva secretion, saliva samples were collected over 5-minute intervals from pre-dose until 4 hours post-dose at the timepoints 0.5, 0.75, 1.0, 1.5, 2.0, 3.0 and 4.0 h.

In data set [4] the test system is healthy non-elderly male and female subjects. Put plainly: single ascending oral dose clinical study of the compound of the invention (first part). The format is in vivo, human. Conditions: single oral dose 1, 3, 10, 30, 100, 150 mg. Here is the method:
In the first part of a randomized, subject- and investigator-blinded, placebo-controlled, single ascending oral dose, parallel group study comprising of 7 cohorts (cohorts 1.1 to 1.7) the compound of the invention was administered at dose levels of 1, 3, 10, 30, 100, and 150 mg. Each cohort consisted of 8 healthy non-elderly male and female subjects who were randomized to receive the compound or matching placebo in a 3:1 ratio.
After a screening period of 21 days, eligible subjects who had signed an informed consent form (ICF) to participate in the study were residential for a single treatment period of 5 days/4 nights. Subjects were admitted to the clinical unit on day −1. After randomization on day 1, subjects received a single oral dose of the compound or matching placebo under fasting. Each cohort was completed with an end-of-study visit, which took place 5 to 9 days after the last pharmacokinetic sample had been collected (or early discontinuation from the study).

For data set [5], the system named is healthy non-elderly and elderly male and female subjects. Put plainly: multiple ascending oral dose clinical study of the compound of the invention (second part). Conditions: multiple oral doses 10, 30, 100, 150 mg. The data set is classed as in vivo, human. As to the method:
The second part of the study investigated, multiple ascending oral doses in 4 cohorts (cohorts 2.1 to 2.4). Each cohort consisted of 12 healthy non-elderly male and female subjects, one optional cohort (cohort 2.5) consisting of 12 healthy nonelderly male and female subjects and one cohort (cohort 2.6) consisting of 12 healthy elderly male and female subjects who were randomized to receive the compound or matching placebo in a 3:1 ratio.
Actual dose levels were 10, 30, 100 and 150 mg of the compound (cohorts 2.1 to 2.4, respectively). The optional cohort 2.5 was not enrolled. The actual dose level for the elderly cohort (cohort 2.6) was 150 mg of the compound.
Sentinel dosing was employed for all cohorts. The first 2 subjects within a cohort (1 subject received the compound and 1 subject received matching placebo) were dosed at least 5 minutes apart. These 2 subjects were monitored for safety for 48 hours after receiving the first dose while dosing was continued. The remaining 10 subjects (8 with the compound and 2 with matching placebo) were divided into 2 sub-cohorts and were dosed at least 48 hours after the first 2 subjects with 48 hours between the 2 sub-cohorts.

A value given as a limit tells only on which side of the number the result lay.

For the compound `CC[C@@H]1CCCN1Cc1sc(NC(=O)c2cnc(N3CCC(C(=O)O)CC3)cn2)nc1-c1ccc(OC)c(C(F)(F)F)c1` [example 8 of EP 2 963 036], the impact on salivation result in data set [1] is on record as “do not significantly impact salivation”.
In the case of `CC[C@@H]1C(=O)OC[C@@H]1Cc1cncn1C` [pilocarpine], the “duration of effect on salivation” value in data set [2] is recorded as ≤ 60 min. In addition, the “time after which initial salivation levels are approached” value in data set [2] (rats, FIG. 1) was “about 60 minutes”. In addition, the sweating result in data set [3] (clinically relevant doses (5 mg and 10 mg qd)) is reported as “a significant number of the patients suffered from sweating”. In data set [3] (human trials, 2.5, 5 and 10 mg pilocarpine), the effect on salivation result was “increased salivation”. For the same compound, the “participants reporting hyperhidrosis as side effect” value in data set [3] (pilocarpine dose of 5 mg) was found to be 8.3%; in data set [3] (pilocarpine dose of 10 mg), 50%.
Take `C[C@@H]1CCCN1Cc1sc(NC(=O)c2cnc(N3CCN(CCC(=O)O)[C@@H](C)C3)cn2)nc1-c1cc(Cl)cs1` [compound of the invention]: the “duration of effect on salivation” value in data set [2] was ≥ 480 min. In addition, the “hyperhidrosis as a side effect” value in data set [4] and in data set [5] was “not reported” each time. Besides, the salivary secretion rates result in data set [4] (FIG. 4) and in data set [5] (FIG. 5) was “increased salivary secretion rates” in each case.

Values taken from patent US20230321085A1, “COMPOUND FOR USE IN THE TREATMENT OF DRY MOUTH” (ASAHI PHARMA CO., LTD., priority 2020, published 2023).
